Measured values taken from US10597388B2, “Pyridazinone herbicides” (FMC CORPORATION, priority 2014, dated 2020).
Like-named read-outs stand apart in the source and are kept apart here.

Key:
Assay type in all cases: in vivo
[1] = test system: barnyardgrass (Echinochloa crus-galli); assay: Test A greenhouse herbicide test, pre- and postemergence; settings: Echinochloa crus-galli, 240 h; for pest or weed control at 125 g/ha: 125 g ai/ha; for pest or weed control at 500 g/ha: 500 g ai/ha, 0 to 100 scale
How it was run: (§1)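 Visual injury ratings, 0 (no effect) to 100 (complete control), versus untreated plants after roughly 10 d in a greenhouse. Compounds, formulated in a surfactant-containing non-phytotoxic solvent, were sprayed on loam–sand soil after sowing (pre) or on one- to two-leaf plants 2–10 cm tall (post).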

[2] = test system: foxtail, giant (giant foxtail, Setaria faberii); assay: as above; settings: Setaria faberi, 240 h; for pest or weed control at 125 g/ha: 125 g ai/ha; for pest or weed control at 500 g/ha: 500 g ai/ha, 0 to 100 scale
How it was run: as §1

kochia (Kochia scoparia) = assay: as above; settings: Bassia scoparia, 240 h; for pest or weed control at 125 g/ha: 125 g ai/ha; for pest or weed control at 500 g/ha: 500 g ai/ha, 0 to 100 scale
How it was run: as §1

[3] = test system: pigweed (Amaranthus retroflexus); assay: as above; settings: Amaranthus retroflexus, 240 h; for pest or weed control at 125 g/ha: 125 g ai/ha; for pest or weed control at 500 g/ha: 500 g ai/ha, 0 to 100 scale
How it was run: as §1

[4] = test system: ragweed (common ragweed, Ambrosia elatior); assay: as above; settings: Ambrosia artemisiifolia, 240 h; for pest or weed control at 125 g/ha: 125 g ai/ha; for pest or weed control at 500 g/ha: 500 g ai/ha, 0 to 100 scale
How it was run: as §1

[5] = test system: ryegrass, Italian (Italian ryegrass, Lolium multiflorum); assay: as above; settings: Lolium multiflorum, 240 h; for pest or weed control at 125 g/ha: 125 g ai/ha; for pest or weed control at 500 g/ha: 500 g ai/ha, 0 to 100 scale
How it was run: as §1

[6] = test system: wheat (Triticum aestivum); assay: as above; settings: Triticum aestivum, post-emergence, 240 h, Postemergence; for plant injury at 125 g/ha: 125 g ai/ha, read-out: Plant response rating, Wheat; for plant injury at 500 g/ha: 500 g ai/ha, 0 to 100 scale, 0 is no effect, 100 is complete control, read-out: Wheat plant response rating
How it was run: as §1

[7] = test system: blackgrass (Alopecurus myosuroides); assay: Test A greenhouse herbicide test, postemergence; settings: Alopecurus myosuroides, post-emergence, 240 h; for pest or weed control at 125 g/ha: 125 g ai/ha, read-out: Plant response rating, Blackgrass; for pest or weed control at 500 g/ha: 500 g ai/ha, 0 to 100 scale, 0 is no effect, 100 is complete control, read-out: Blackgrass plant response rating
How it was run: (§2)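 Seedlings in a loam soil and sand mix received formulated compound postemergence at the one- to two-leaf stage. Greenhouse holding lasts approximately 10 d, then injury is scored visually relative to untreated plants, 0 meaning no effect and 100 complete control.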

[8] = test system: galium (catchweed bedstraw, Galium aparine); assay: Test A greenhouse herbicide test, postemergence; settings: Galium, post-emergence, 240 h; for pest or weed control at 125 g/ha: 125 g ai/ha, read-out: Plant response rating, Galium; for pest or weed control at 500 g/ha: 500 g ai/ha, 0 to 100 scale, 0 is no effect, 100 is complete control, read-out: Galium plant response rating
How it was run: as §2

corn (Zea mays) = assay: Test C greenhouse herbicide test, pre- and postemergence
How it was run: (§3)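 Visual 0–100 injury score (100 = complete control) taken against untreated controls after 13–15 d in greenhouse. Test chemicals, formulated in solvent plus surfactant, applied preemergence to seeds in loam–sand soil or postemergence to 1- to 4-leaf plants (2–18 cm).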

[9] = test system: ryegrass, Italian (Italian ryegrass, Lolium multiflorum); assay: as above
How it was run: as §3

[10] = post-emergence, Postemergence, 0 is no effect, 100 is complete control, read-out: Barnyardgrass plant response rating
[11] = pre-emergence, Preemergence, 0 to 100 scale where 0 is no effect and 100 is complete control, read-out: Barnyardgrass plant response rating
[12] = pre-emergence, Preemergence, 0 no effect, 100 complete control, read-out: Plant response rating, Barnyardgrass
[13] = post-emergence, Postemergence, 0 is no effect, 100 is complete control, read-out: Foxtail, Giant plant response rating
[14] = pre-emergence, Preemergence, 0 to 100 scale where 0 is no effect and 100 is complete control, read-out: Foxtail, Giant plant response rating
[15] = pre-emergence, Preemergence, 0 no effect, 100 complete control, read-out: Plant response rating, Foxtail, Giant
[16] = post-emergence, Postemergence, 0 is no effect, 100 is complete control, read-out: Kochia plant response rating
[17] = pre-emergence, Preemergence, 0 to 100 scale where 0 is no effect and 100 is complete control, read-out: Kochia plant response rating
[18] = pre-emergence, Preemergence, 0 no effect, 100 complete control, read-out: Plant response rating, Kochia
[19] = post-emergence, Postemergence, 0 is no effect, 100 is complete control, read-out: Pigweed plant response rating
[20] = pre-emergence, Preemergence, 0 to 100 scale where 0 is no effect and 100 is complete control, read-out: Pigweed plant response rating
[21] = pre-emergence, Preemergence, 0 no effect, 100 complete control, read-out: Plant response rating, Pigweed
[22] = post-emergence, Postemergence, 0 is no effect, 100 is complete control, read-out: Ragweed plant response rating
[23] = pre-emergence, Preemergence, 0 to 100 scale where 0 is no effect and 100 is complete control, read-out: Ragweed plant response rating
[24] = pre-emergence, Preemergence, 0 no effect, 100 complete control, read-out: Plant response rating, Ragweed
[25] = post-emergence, Postemergence, 0 is no effect, 100 is complete control, read-out: Ryegrass, Italian plant response rating
[26] = pre-emergence, Preemergence, 0 to 100 scale where 0 is no effect and 100 is complete control, read-out: Ryegrass, Italian plant response rating
[27] = visual rating after approx. 10 d, 0 to 100 scale (0 no effect, 100 complete control)
[28] = Postemergence, 31 g ai/ha, 0 to 100 scale (0 no effect, 100 complete control)
[29] = Postemergence, 125 g ai/ha, scale 0 to 100, 0 is no effect, 100 is complete control
[30] = Postemergence, 250 g ai/ha, scale 0 to 100, 0 no effect, 100 complete control, 13 to 15 d
[31] = postemergence, 62 g ai/ha, scale 0 to 100, 0 no effect, 100 complete control
[32] = 0 to 100 scale where 0 is no effect and 100 is complete control

Row | SMILES | pest or weed control at 500 g/ha [1, 10] | pest or weed control at 125 g/ha [1, 11] | pest or weed control at 500 g/ha [1, 12] | pest or weed control at 500 g/ha [2, 13] | pest or weed control at 125 g/ha [2, 14] | pest or weed control at 500 g/ha [2, 15] | pest or weed control at 500 g/ha (kochia (Kochia scoparia); [16]) | pest or weed control at 125 g/ha (kochia (Kochia scoparia); [17]) | pest or weed control at 500 g/ha (kochia (Kochia scoparia); [18]) | pest or weed control at 500 g/ha [3, 19] | pest or weed control at 125 g/ha [3, 20] | pest or weed control at 500 g/ha [3, 21] | pest or weed control at 500 g/ha [4, 22] | pest or weed control at 125 g/ha [4, 23] | pest or weed control at 500 g/ha [4, 24] | pest or weed control at 500 g/ha [5, 25] | pest or weed control at 125 g/ha [5, 26] | plant injury at 500 g/ha [6] | pest or weed control at 500 g/ha [7] | pest or weed control at 500 g/ha [8] | also measured
1 | CC(=O)Oc1c(C)nn(C)c(=O)c1-c1c(C)oc2ccc(C)cc12 [Compound 14, 5-(acetyloxy)-4-(2,5-dimethyl-3-benzofuranyl)-2,6-dimethyl-3(2H)-pyridazinone] | 70% | 0% | 40% | 70% | 0% | 10% | 90% | 10% | 50% | 80% | 70% | 90% | 90% | 0% | 30% | 80% | 30% | 0% | 30% | 90% | pest or weed control at 125 g/ha ([1]; post-emergence, Postemergence, visual rating after approx. 10 d, 0 to 100 scale (0 no effect, 100 complete control), read-out: Plant response rating, Barnyardgrass): 10%; pest or weed control at 125 g/ha ([2]; post-emergence, Postemergence, visual rating after approx. 10 d, 0 to 100 scale (0 no effect, 100 complete control), read-out: Plant response rating, Foxtail, Giant): 10%; pest or weed control at 125 g/ha (kochia (Kochia scoparia); post-emergence, Postemergence, visual rating after approx. 10 d, 0 to 100 scale (0 no effect, 100 complete control), read-out: Plant response rating, Kochia): 80%; pest or weed control at 125 g/ha ([3]; post-emergence, Postemergence, visual rating after approx. 10 d, 0 to 100 scale (0 no effect, 100 complete control), read-out: Plant response rating, Pigweed): 60%; pest or weed control at 125 g/ha ([4]; post-emergence, Postemergence, visual rating after approx. 10 d, 0 to 100 scale (0 no effect, 100 complete control), read-out: Plant response rating, Ragweed): 70%; pest or weed control at 125 g/ha ([5]; post-emergence, Postemergence, visual rating after approx. 10 d, 0 to 100 scale (0 no effect, 100 complete control), read-out: Plant response rating, Ryegrass, Italian): 60%; plant injury at 125 g/ha [6, 27]: 0%; pest or weed control at 125 g/ha [7, 27]: 20%; pest or weed control at 125 g/ha [8, 27]: 80%; Corn plant response rating (corn (Zea mays); [28]): 0; Plant response rating, Corn (corn (Zea mays); [29]): 0; Plant response rating, Corn (corn (Zea mays); [30]): 5; Corn plant response rating (corn (Zea mays); [31]): 0; Ryegrass, Italian plant response rating [9, 28]: 40; Plant response rating, Ryegrass, Italian [9, 29]: 65; Plant response rating, Ryegrass, Italian [9, 30]: 85; Ryegrass, Italian plant response rating [9, 31]: 60
2 | COc1nn(C)c(=O)c(-c2c(C)c(C)cc3ccccc23)c1O [Compound 46, 4-(2,3-dimethyl-1-naphthalenyl)-5-hydroxy-6-methoxy-2-methyl-3(2H)-pyridazinone] | 80% | 20% | 60% | 80% | 50% | 90% | 40% | 30% | 30% | 90% | 30% | 100% | 90% | 50% | 80% | 80% | 30% | 20% | 70% | 90% | pest or weed control at 125 g/ha ([1]; post-emergence, Postemergence, 0 to 100 scale where 0 is no effect and 100 is complete control, read-out: Plant response rating, Barnyardgrass): 20%; pest or weed control at 125 g/ha ([2]; post-emergence, Postemergence, 0 to 100 scale where 0 is no effect and 100 is complete control, read-out: Plant response rating, Foxtail, Giant): 50%; pest or weed control at 125 g/ha (kochia (Kochia scoparia); post-emergence, Postemergence, 0 to 100 scale where 0 is no effect and 100 is complete control, read-out: Plant response rating, Kochia): 30%; pest or weed control at 125 g/ha ([3]; post-emergence, Postemergence, 0 to 100 scale where 0 is no effect and 100 is complete control, read-out: Plant response rating, Pigweed): 70%; pest or weed control at 125 g/ha ([4]; post-emergence, Postemergence, 0 to 100 scale where 0 is no effect and 100 is complete control, read-out: Plant response rating, Ragweed): 80%; pest or weed control at 125 g/ha ([5]; post-emergence, Postemergence, 0 to 100 scale where 0 is no effect and 100 is complete control, read-out: Plant response rating, Ryegrass, Italian): 30%; pest or weed control at 500 g/ha ([5]; pre-emergence, Preemergence, 0 no effect, 100 complete control, read-out: Plant response rating, Ryegrass, Italian): 50%; plant injury at 125 g/ha [6, 32]: 0%; pest or weed control at 125 g/ha [7, 32]: 20%; pest or weed control at 125 g/ha [8, 32]: 70%
